Measurements as given in ChEMBL document CHEMBL1201862, “PubChem BioAssay data set” (2004).
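Values below derive from 48-hour exposures of cells grown in 96-well plates, with endpoints linearly interpolated between the two concentrations bracketing the appropriate inhibition level. Here, GI50 denotes the concentration required for 50% inhibition of growth.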 Activity calls are given as the source filed them. Rule as the data show it: active = GI50 up to about 1.1 µM and inactive = higher.

Columns and labels:
Assay in all cases: inhibition of tumour cell growth, NCI panel, 48 h
UO-31 = tested on: UO-31
786-0 = tested on: 786-0
LOX IMVI = tested on: LOX IMVI
KM-20L2 = tested on: KM-20L2
TK-10 = tested on: TK-10
OVCAR-5 = tested on: OVCAR-5
SNB-19 = tested on: SNB-19
ACHN = tested on: ACHN
A549 = tested on: A549
SR = tested on: SR
HOP-62 = tested on: HOP-62
NCI-H23 = tested on: NCI-H23
OVCAR-4 = tested on: OVCAR-4
OVCAR-3 = tested on: OVCAR-3
NCI-H226 = tested on: NCI-H226
SNB-75 = tested on: SNB-75
RPMI-8226 = tested on: RPMI-8226
NCI/ADR-RES = tested on: NCI/ADR-RES
BT-549 = tested on: BT-549
PC-3 = tested on: PC-3

Row | Structure (SMILES) | GI50 (UO-31) | GI50 (786-0) | GI50 (LOX IMVI) | GI50 (KM-20L2) | GI50 (TK-10) | GI50 (OVCAR-5) | GI50 (SNB-19) | GI50 (ACHN) | GI50 (A549) | GI50 (SR) | GI50 (HOP-62) | GI50 (NCI-H23) | GI50 (OVCAR-4) | GI50 (OVCAR-3) | GI50 (NCI-H226) | GI50 (SNB-75) | GI50 (RPMI-8226) | GI50 (NCI/ADR-RES) | GI50 (BT-549) | GI50 (PC-3)
1 | CCOC(=O)Nc1ccc(S(=O)(=O)I)cc1.CCOC(=O)Nc1ccc(S(=O)(=O)I)cc1.CN(C=O)C1=C(N(C)C=O)C(N(C)C=O)=C(N(C)C=O)C(=O)C1=O | > 100 µM (inactive) | > 100 µM (inactive) | > 100 µM (inactive) | > 100 µM (inactive) | > 100 µM (inactive) | > 100 µM (inactive) | > 100 µM (inactive) | > 100 µM (inactive) | > 100 µM (inactive) | > 100 µM (inactive) | > 100 µM (inactive) | > 100 µM (inactive) | – | – | – | – | – | – | – | –
2 | COc1ccc(CC2NCCc3c2[nH]c2ccccc32)cc1 (stereo not given) | 41.5 µM (inactive) | > 100 µM (inactive) | 42 µM (inactive) | 33.7 µM (inactive) | > 100 µM (inactive) | > 100 µM (inactive) | > 100 µM (inactive) | 66.8 µM (inactive) | > 100 µM (inactive) | – | > 100 µM (inactive) | – | 54 µM (inactive) | 64.6 µM (inactive) | > 100 µM (inactive) | 39.1 µM (inactive) | 30.4 µM (inactive) | – | – | –
3 | COc1c(C2=NC(C(C)C)CO2)ccc2ccccc12 (stereo not given) | 31.4 µM (inactive) | 45.9 µM (inactive) | 21.5 µM (inactive) | 42.1 µM (inactive) | 88.3 µM (inactive) | 82.8 µM (inactive) | 50.5 µM (inactive) | 42.6 µM (inactive) | 32.7 µM (inactive) | – | 47.8 µM (inactive) | 34.6 µM (inactive) | 31.7 µM (inactive) | 37.2 µM (inactive) | 30.6 µM (inactive) | 27.6 µM (inactive) | 22.6 µM (inactive) | – | – | –
4 | c1cnc2nc3n(c2c1)CSC3 | > 100 µM (inactive) | > 100 µM (inactive) | > 100 µM (inactive) | > 100 µM (inactive) | > 100 µM (inactive) | > 100 µM (inactive) | – | > 100 µM (inactive) | > 100 µM (inactive) | – | > 100 µM (inactive) | > 100 µM (inactive) | > 100 µM (inactive) | > 100 µM (inactive) | > 100 µM (inactive) | > 100 µM (inactive) | > 100 µM (inactive) | – | – | –
5 | CC(C)N(C(=O)C12C3C4C5C3C1(C(=O)O)C5C42)C(C)C (stereo not given) | > 100 µM (inactive) | > 100 µM (inactive) | > 100 µM (inactive) | > 100 µM (inactive) | > 100 µM (inactive) | > 100 µM (inactive) | > 100 µM (inactive) | > 100 µM (inactive) | > 100 µM (inactive) | – | > 100 µM (inactive) | > 100 µM (inactive) | > 100 µM (inactive) | > 100 µM (inactive) | – | 61.2 µM (inactive) | > 100 µM (inactive) | – | – | –
6 | CCCCCCC(=O)O[C@H]1CC[C@H]2[C@@H]3CCC4C/C(=N/NC(=O)c5cccc6c(=O)c7ccccc7[nH]c56)C=C(C)[C@]4(C)[C@H]3CC[C@]12C (stereo not given in full) | 19.6 µM (inactive) | > 25 µM (inactive) | > 25 µM (inactive) | – | > 25 µM (inactive) | > 25 µM (inactive) | > 25 µM (inactive) | > 25 µM (inactive) | > 25 µM (inactive) | > 25 µM (inactive) | > 25 µM (inactive) | > 25 µM (inactive) | > 25 µM (inactive) | > 25 µM (inactive) | > 25 µM (inactive) | > 25 µM (inactive) | > 25 µM (inactive) | > 25 µM (inactive) | > 25 µM (inactive) | > 25 µM (inactive)
7 | CCc1c(OC(C)=O)c2c(NC3OC(COC(C)=O)C(OC(C)=O)C(OC(C)=O)C3OC(C)=O)nc(OC)nc2oc1=O (stereo not given) | > 100 µM (inactive) | > 100 µM (inactive) | > 100 µM (inactive) | > 100 µM (inactive) | > 100 µM (inactive) | > 100 µM (inactive) | > 100 µM (inactive) | > 100 µM (inactive) | > 100 µM (inactive) | – | > 100 µM (inactive) | > 100 µM (inactive) | > 100 µM (inactive) | > 100 µM (inactive) | > 100 µM (inactive) | > 100 µM (inactive) | > 100 µM (inactive) | – | – | –
8 | Cc1ccc(S(=O)(=O)N/N=C2\C(=O)Nc3cc(O)c(C(=O)O)cc32)cc1 | > 100 µM (inactive) | > 100 µM (inactive) | > 100 µM (inactive) | – | > 100 µM (inactive) | > 100 µM (inactive) | > 100 µM (inactive) | > 100 µM (inactive) | > 100 µM (inactive) | > 100 µM (inactive) | > 100 µM (inactive) | > 100 µM (inactive) | > 100 µM (inactive) | > 100 µM (inactive) | > 100 µM (inactive) | > 100 µM (inactive) | > 100 µM (inactive) | > 100 µM (inactive) | > 100 µM (inactive) | > 100 µM (inactive)
9 | Cc1ccc(S(=O)(=O)N/N=C\c2c3ccccc3[n+](C)c3ccccc23)cc1 | 26.9 µM (inactive) | 28.1 µM (inactive) | 11.2 µM (inactive) | 31.7 µM (inactive) | 48.3 µM (inactive) | > 100 µM (inactive) | 24.9 µM (inactive) | 41.9 µM (inactive) | 20.8 µM (inactive) | – | 34.1 µM (inactive) | 21.1 µM (inactive) | 27.6 µM (inactive) | 26.1 µM (inactive) | 25 µM (inactive) | 20 µM (inactive) | 29.8 µM (inactive) | – | – | –
10 | CC(=O)NC1=C(C)C(=O)c2c(nc3n2CC[C@H]3OC(C)=O)C1=O | 3.01 µM (inactive) | 1.95 µM (inactive) | 0.718 µM (active) | – | 8.13 µM (inactive) | 2.96 µM (inactive) | 5.5 µM (inactive) | 2.78 µM (inactive) | 8.32 µM (inactive) | 0.361 µM (active) | 10.8 µM (inactive) | 2.61 µM (inactive) | 0.891 µM (active) | 0.0982 µM (active) | 9.77 µM (inactive) | 3.13 µM (inactive) | 1.36 µM (inactive) | 2.06 µM (inactive) | 1.59 µM (inactive) | 0.637 µM (active)
11 | Cc1nc(Nc2ccc(F)cc2)c2sc(=S)n(-c3ccc(F)cc3)c2n1 | 16.5 µM (inactive) | 10 µM (inactive) | 4.99 µM (inactive) | – | 14.5 µM (inactive) | 17.9 µM (inactive) | 14.7 µM (inactive) | 13.7 µM (inactive) | 16 µM (inactive) | 3.27 µM (inactive) | 11.8 µM (inactive) | 4.24 µM (inactive) | 15.5 µM (inactive) | 17.1 µM (inactive) | 16.1 µM (inactive) | 16.1 µM (inactive) | 5.01 µM (inactive) | 17.1 µM (inactive) | 13.3 µM (inactive) | 20.1 µM (inactive)
12 | CN(CC(N)=O)C(=O)N(CCCl)N=O [SARCNU] | > 100 µM (inactive) | 98.4 µM (inactive) | > 100 µM (inactive) | – | > 100 µM (inactive) | > 100 µM (inactive) | > 83.9 µM (inactive) | > 100 µM (inactive) | > 100 µM (inactive) | > 71.1 µM (inactive) | > 100 µM (inactive) | > 100 µM (inactive) | > 100 µM (inactive) | > 100 µM (inactive) | 67.9 µM (inactive) | 38.6 µM (inactive) | > 100 µM (inactive) | > 100 µM (inactive) | > 100 µM (inactive) | > 100 µM (inactive)
13 | Cc1ccc(Nc2nc3c(s2)C(=O)c2ccccc2C3=O)cc1 | 2.03 µM (inactive) | 1.88 µM (inactive) | 1.58 µM (inactive) | 17.5 µM (inactive) | 7.26 µM (inactive) | 1.91 µM (inactive) | 1.79 µM (inactive) | 1.75 µM (inactive) | 2.16 µM (inactive) | – | 7.16 µM (inactive) | 1.82 µM (inactive) | 1.55 µM (inactive) | 1.52 µM (inactive) | 19.4 µM (inactive) | 2.14 µM (inactive) | 1.23 µM (inactive) | – | – | –
14 | O=C1[C@H]2ON(c3ccccc3)C(c3ccccc3)[C@H]2C(=O)N1c1ccc(Cc2ccc(N3C(=O)[C@@H]4ON(c5ccccc5)C(c5ccccc5)[C@@H]4C3=O)cc2)cc1 (stereo not given in full) | > 100 µM (inactive) | > 100 µM (inactive) | > 100 µM (inactive) | > 100 µM (inactive) | – | > 100 µM (inactive) | – | > 100 µM (inactive) | > 100 µM (inactive) | – | > 100 µM (inactive) | > 100 µM (inactive) | > 100 µM (inactive) | > 100 µM (inactive) | > 100 µM (inactive) | > 100 µM (inactive) | > 100 µM (inactive) | – | – | –
15 | O=S(=O)(N/N=C/c1ccc(Cl)c(Cl)c1)c1ccccc1 | 27 µM (inactive) | 31.8 µM (inactive) | 43.9 µM (inactive) | 62.1 µM (inactive) | 41.7 µM (inactive) | 38.2 µM (inactive) | – | 43.1 µM (inactive) | 39.7 µM (inactive) | 42.3 µM (inactive) | 35.7 µM (inactive) | 36.3 µM (inactive) | 55 µM (inactive) | 24.5 µM (inactive) | 58.5 µM (inactive) | 52 µM (inactive) | 47 µM (inactive) | – | – | –
16 | COC(=O)C1=C(OC(=O)/C=C/c2ccc(Cl)cc2)C(C(=O)OC)[C@]2(O)[C@@H](C(=O)OC)[C@H]1C[C@@H](c1ccccc1)[C@@H]2C(=O)OC (stereo not given in full) | 7.08 µM (inactive) | 4.92 µM (inactive) | 7.19 µM (inactive) | – | > 30.3 µM (inactive) | 17.7 µM (inactive) | 6.65 µM (inactive) | 4.74 µM (inactive) | 3.7 µM (inactive) | 4.5 µM (inactive) | > 57.4 µM (inactive) | 3.44 µM (inactive) | 5.19 µM (inactive) | 7.5 µM (inactive) | 4.12 µM (inactive) | 12.3 µM (inactive) | 3.92 µM (inactive) | 3.52 µM (inactive) | 6.55 µM (inactive) | 5.65 µM (inactive)
